In US20070161628A1, “Phosphodiesterase inhibitors” (GREENPHARMA, priority 2004, published 2007):

Assays:
[1] = molecular target: T1, human type 2 phosphodiesterase (source: U-937 cells) (Homo sapiens, UniProt O00408); assay: Inhibition of PDE2; assay type: biochemical; conditions: substrate 1 μM, 30 minutes at 30° C.
T1 construct: human type 2 phosphodiesterase (source: U-937 cells); endogenous in cells; host or cells: U-937 cells
Method: This novel family of compounds was tested as inhibitor of human type 2 phosphodiesterase (source: U-937 cells) by following the process described by Torphy, T. J., Zhou, H. L. and Cieslinski, L. B. (J. Pharmacol. Exp. Ther., 1992, 263, 1195-1205). […] A quantitative measurement of the hydrolysis product [^3H]-5′-AMP was determined by scintillation.

PDE1 (bovine) = assay: Selectivity towards PDE1; assay type: biochemical; conditions: substrate [3H]cAMP+cAMP 1 μM, 30 minutes at 30° C.
Method: (§1) D., JACKMAN S. A. and WILKE R. (Brit. J. Pharmacol. 1989, 97, 889-897); (ii, PDE3 and PDE5) Weishaar, R. E., Burrows, S. D., Kobylarz, D. C., Quade, M. M. and Evans, D. B. (Biochem. Pharmacol., 1986, 35, 787-800); (iii, PDE6) Ballard, A. S., Gingell, C. J., Tang, K., Turner, L. A., PRICE, M. E. (J. Urol, 1998, 159, 2164-2171). […] In the case of PDE 5 and 6, the substrate used is ([^3H]cGMP+cGMP) at a concentration of 1 μM for PDE5 and 2 μM for PDE6. A quantitative measurement of the hydrolysis products [^3H]-5′-AMP and [^3H]-5′-GMP was determined by scintillation.

[2] = tested on: TNF-alpha in peripheral blood mononuclear cells (PBMC); assay: Anti-inflammatory properties: TNF-alpha in LPS-activated PBMC; assay type: cell-based; conditions: LPS 1 μg/ml, 24 hours, EIA
Method: The compounds according to the invention were evaluated for their anti-inflammatory properties on peripheral blood mononuclear cells (PBMC). More particularly, the cells were incubated for 24 hours in the presence of the test molecule, after activation with lipopolysaccharide (LPS) (1 μg/ml) according to the protocol described by Schindler, R., Mancilla, J., Endres, S., Ghorbani, R., Clark, S. C. and Dinarello, C. A. (Blood, 1990, 75, 40-47). After incubation, the concentrations of TNF-alpha were measured in the culture supernatants by the EIA method.

trabecular bone = assay: Microarchitecture and study of bone markers in mice; assay type: in vivo, C57BL6 mice; conditions: 5 mg/kg per day, 5 days per week, 4 weeks, subcutaneous; for effect on the bone quantity and microarchitecture (BV/TV, Tb.N): distal metaphysis of the femur, microQCT
Method: The object is to test the effect of the components described above on the microarchitecture of the trabecular bone. […] Results on the Bone Microarchitecture • No significant difference between the groups at the start of the treatment. No significant difference between the control (base) group and the Sham group. All the significant differences are represented by an *, *p<0.05; **p<0.01 • Several parameters (10) are recorded and analysed, such as: • BV/TV: represents the bone volume of the trabecular bone to the tissue volume, • Tb.N: trabecular number. The trabecular bone volume (BV/TV, %) and the trabecular number (Tb.N) are calculated via the “Mean Intercept Length (MIL)” method. The trabecular thickness (Tb.Th) and the trabecular space (Tb.Sp) are calculated via the method described by Hildebrand & Ruegsegger (Journal of Microscopy. 185:67-75, 1997). • BV/TV: FIG. 5 • Tb.N: FIG. 6 CONCLUSION

PDE3 (human) = assay: Selectivity towards PDE3; assay type: biochemical; conditions: PDE1, 3, 5 and 6
Method: as §1

[3] = tested on: human type 4 phosphodiesterase (source: U-937 cells); assay: Inhibition of PDE4
Method: A quantitative measurement of the hydrolysis product [^3H]-5′-AMP was determined by scintillation.

[4] = tested on: primary cultures of rat motor neuron embryonic cells; assay: Neuroprotective effect, apoptosis induced by suppression of BDNF; assay type: cell-based; conditions: 1 μM; apoptosis induced by BDNF deprivation
Method: This test was performed according to the protocol described by Estevez A. G. et al. (J. Neurosci. 1998, 18(3), 923-931). Briefly, when primary cultures of rat motor neuron embryonic cells are deprived of “brain-derived neurotrophic factor” (BDNF), an induction of neuronal “nitric oxide synthase” (NOS) was observed, resulting in the gradual death of the neurons by apoptosis: between 18 and 24 hours after making the biological preparation, more than 60% of the neurons die. In this model of induced apoptosis, the compound described in Example 1 (S-tofisopam and analogues) protects the neurons by more than 50% at a concentration of 1 μM.

[5] = tested on: primary neuron cultures (foetal rat cerebral cortex); assay: Stimulation of neurotrophic factors: primary neuron cultures observed with and without compound; assay type: cell-based
Method: The neurons are cultured in neurobasal medium using foetal rat cerebral cortex according to the procedure described in Example 1 and are photographed without staining 17 days after culturing. Culture A is a control culture without compound. […] Compounds according to the invention were evaluated for their neurotrophic properties. The idea is thus to observe the behaviour of a neuron cell culture in the absence and presence of such molecules. The molecule used in this example is S-tofisopam. The adult animals are coupled and the female rats are separated out the next day. After 16 days, a caesarean section is performed on the gestating female rats and the foetuses are placed in a Petri dish 100 mm in diameter. They are transferred to a laminar flow fume cupboard, in sterile medium. The foetuses are individually isolated and are dissected under a binocular magnifying glass in sterile medium. The cerebral cortex is isolated and placed in a tube containing antibiotic-free neurobasal medium. The tissue is dissociated by suction-ejection, into individual cells in a volume of 2 ml. The cell suspension is then delicately deposited on 2-ml of inactivated foetal calf serum. The tube is centrifuged at low gravity (800 g) for 5 minutes at room temperature. The cell pellet is recovered and the cells are resuspended in complete neurobasal medium. The cells are counted using a Mallassez haematimeter in the presence of trypan blue to determine the cell viability. Culturing is performed by placing 800 000 cells in Petri dishes 60 mm in diameter containing complete neurobasal medium, preheated and equilibrated in a CO2 incubator. These dishes were lined beforehand with a polylysine coat the day before the manipulation. The incubator temperature is set at 37° C., the CO2 level at 5% and the humidity is saturating. The Petri dishes containing the cells are then placed in the incubator. […] These cultures constitute primary neuron cultures. The neuron cultures as prepared above serve as controls. Five dishes are used in order to have a statistical approach. In the other dishes, the test molecule is added at different concentrations: 0.1 μmol/l, 1 μmol/l and 10 μmol/l. In each case, the manipulation is repeated 5 times. The neurons are examined by inverted phase-contrast microscope (Zeiss Axiovert 135) every day after inoculation. The neurons are photographed at various magnifications using a photography camera and are compared between series.

T1 sequence (O00408 whole entry): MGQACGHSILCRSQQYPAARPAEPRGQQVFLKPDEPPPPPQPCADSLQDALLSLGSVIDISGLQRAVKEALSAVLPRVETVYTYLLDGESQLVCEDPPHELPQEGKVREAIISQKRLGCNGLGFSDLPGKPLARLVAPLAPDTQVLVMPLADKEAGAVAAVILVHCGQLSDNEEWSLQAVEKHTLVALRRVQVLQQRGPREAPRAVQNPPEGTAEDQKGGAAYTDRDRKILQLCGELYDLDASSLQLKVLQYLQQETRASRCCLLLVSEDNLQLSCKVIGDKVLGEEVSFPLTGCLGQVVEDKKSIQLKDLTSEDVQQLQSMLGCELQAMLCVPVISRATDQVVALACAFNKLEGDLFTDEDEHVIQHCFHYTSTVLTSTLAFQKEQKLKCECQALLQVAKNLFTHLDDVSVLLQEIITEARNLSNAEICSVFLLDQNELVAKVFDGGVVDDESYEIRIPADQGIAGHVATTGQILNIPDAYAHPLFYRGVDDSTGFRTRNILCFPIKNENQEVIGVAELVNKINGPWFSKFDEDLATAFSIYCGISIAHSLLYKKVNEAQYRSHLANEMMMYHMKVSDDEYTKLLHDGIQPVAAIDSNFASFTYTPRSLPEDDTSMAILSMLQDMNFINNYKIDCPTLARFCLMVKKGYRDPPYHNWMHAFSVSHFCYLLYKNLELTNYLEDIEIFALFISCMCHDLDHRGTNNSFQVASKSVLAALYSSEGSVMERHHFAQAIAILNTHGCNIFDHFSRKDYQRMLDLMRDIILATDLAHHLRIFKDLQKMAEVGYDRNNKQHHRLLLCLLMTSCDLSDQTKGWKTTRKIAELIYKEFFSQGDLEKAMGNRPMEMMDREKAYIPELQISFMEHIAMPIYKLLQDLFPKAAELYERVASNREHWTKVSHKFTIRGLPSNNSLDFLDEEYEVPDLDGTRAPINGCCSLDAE

CCOc1cc2c(cc1OCC)C(CC)C(C)=NN=C2c1ccc(OC)c(OC)c1 (racemic)
melting point: 91 to 93 °C

CCCCCC[C@@H]([C@@H](C)O)n1cnc2c(N)ncnc21 (racemic) [EHNA, reference compound]
IC50 [1]: 2100 nM

COCc1nc2c([nH]1)c(=O)n(C)c(=O)n2CC(C)C [8-methoxy-IBMX]
IC50 (PDE1 (bovine)): 2900 nM

CCOc1cc2c(cc1OCC)[C@@H](CC)C(C)=NN=C2c1ccc(OC)c(OC)c1 [R-etofisopam, (R) 1-(3,4-dimethoxy-phenyl)-4-methyl-5-ethyl-7,8-diethoxy-5H-2,3-benzodiazepine]
IC50 [2]: 1 to 100 nM

CCOc1cc2c(cc1OCC)[C@H](CC)C(C)=NN=C2c1ccc(OC)c(OC)c1 [S-etofisopam, 5S-(3,4-dimethoxyphenyl)-5-ethyl-4-methyl-7,8-diethoxy-5H-2,3-benzodiazepine]
IC50 [2]: 1 to 100 nM | effect on the bone quantity and microarchitecture (BV/TV, Tb.N) (trabecular bone): Identity results | inhibition of the other PDEs, especially PDE3, compared with PDE4 or PDE2 (PDE3 (human)): more weakly | IC50 ([3]; read-out: IC50 PDE4, substrate [3H]cAMP+cAMP 1 μM, 30 minutes at 30° C.): 20 nM

CC[C@@H]1C(C)=NN=C(c2ccc(OC)c(OC)c2)c2cc(OC)c(OC)cc21 [S-tofisopam, (5S)-1-(3,4-dimethoxyphenyl)-5-ethyl-7,8-dimethoxy-4-methyl-5H-2,3-benzodiazepine]
IC50 [1]: 500 nM | IC50 [2]: 1 to 100 nM | markers and cellular activity: effect on bone formation and bone resorption (trabecular bone): uncoupling effect: anabolic on bone formation, inhibitory on bone resorption | effect on the bone quantity and microarchitecture (BV/TV, Tb.N) (trabecular bone): positive effect | inhibition of the other PDEs, especially PDE3, compared with PDE4 or PDE2 (PDE3 (human)): more weakly | protection of the neurons [4]: more than 50% | inhibition on PDE4 relative to R-tofisopam ([3]; S-tofisopam versus R-tofisopam): ten times higher | density of the neurites with added astrocyte culture supernatant ([5]; astrocyte culture supernatant added, compared with control): increasing the density of the neurites | cell survival: time treated neurons remain alive after application ([5]; control: all neurons disappeared after 15 days): almost four weeks | neurotrophic and neuroprotective role in neuron culture ([5]; overall conclusion): not only a neurotrophic role but also a neuroprotective role | growth of the neurites versus control ([5]; primary neuron culture, test concentrations 0.1, 1 and 10 μmol/l (FIG. 1: 50 μM added on day 8)): greater growth of the neurites than in the cells used as control

C[C@@H]1C[C@H]2[C@@H]3CCC4=CC(=O)C=C[C@]4(C)[C@@]3(F)[C@@H](O)C[C@]2(C)[C@@]1(O)C(=O)CO [dexamethasone, reference compound]
IC50 [2]: 4600 nM
